≈ marks a conversion by molar mass, not a printed value. Entries after “also recorded” stand apart in the source; their conditions may differ. Like-named read-outs stand apart in the source and are kept apart here.
Tests used:
[1] = test system: Klebsiella pneumoniae ATCC 43816; assay: Spectrum of antimicrobial activity; type: cell-based
[2] = Solubility, shake-flask method; type: physicochemical; conditions: 0.9% saline solution at pH 7.4, triplicate
Procedure: The solubility of these two compounds was measured in triplicate using the shake-flask method in a 0.9% saline solution at pH 7.4. Both 8a and 20q had acceptable solubilities of 1.35 mg/mL and 0.28 mg/mL, respectively.
Compounds were ground into a fine powders using a mortar and pestle and added to a 25 mL glass Erlenmeyer flask with 5 mL of a 0.9% saline solution at pH 7.4. Approximately 20 mg of compound was added to each flask to ensure saturation. The flasks were then vigorously stirred using a magnetic stir bar at 25° C. for 48 hours. The samples were then filtered through a Whatman PVDF membrane (0.45 μm pore size) syringe filter. The concentration of compound in the supernatant was then measured using HPLC quantitation at the maximum absorption wavelength for each compound.

[3] = test system: Salmonella typhimurium -Hisg46 SRI Collection; assay: Spectrum of antimicrobial activity; type: cell-based
[4] = test system: Mycobacterium abscessus ATCC 19977; assay: Spectrum of antimicrobial activity; type: cell-based
[5] = test system: Mycobacterium smegmatis ATCC 10143; assay: Spectrum of antimicrobial activity; type: cell-based
Mtb H37Rv = assay: TB MIC - SRI, resazurin-based microplate assay; type: cell-based, Mycobacterium tuberculosis; conditions: for MIC: Mycobacterium tuberculosis, H37RV
Escherichia coli BAA 201 = assay: Spectrum of antimicrobial activity; type: cell-based
[6] = test system: Klebsiella pneumoniae ATCC 700721; assay: Spectrum of antimicrobial activity; type: cell-based
[7] = test system: mouse lymphoma cell tk+/−→tk−/− gene mutation; assay: Mouse lymphoma cell tk+/−→tk−/− gene mutation (MOLY) assay; type: cell-based
Description: (§1) A liability in developing any bioreductively-activated antimicrobial drug is the potential for mutagenicity. Because the basis for activity of these compounds is the generation of intermediate radical species, undesirable mutagenicity poses a risk, as has been documented for many classes of bioreductive drugs, including the BTO tirapazamine (TPZ).^19,20 The most convenient methodology for assessing the potential to induce genetic damage is to use the plate incorporation method with Salmonella typhimurium strains TA98 and TA100, commonly known as the Ames assay. The Salmonella tester strains have mutations in the histidine operon, a mutation that leads to defective lipopolysaccharide (rfa), and a deletion that covers genes involved in the synthesis of biotin (bio) and in the repair of ultraviolet-induced DNA damage (uvrB).^21,22 These mutations make the strains more permeable to many molecules and increase their susceptibility to the mutagenic effects of these molecules. Given that the hypothesized mechanism of the BTO compounds is to selectively form cytotoxic radical species in bacteria over mammalian cells, a microbial mutagenicity assay is not ideal, but was used to benchmark their activities in this assay. […] Individual plate counts and their means and standard deviations, along with the condition of the background lawn, are presented in SI Table 2.
Experiments were conducted using a standard procedure for evaluating mutagenic potential.^23,24 The details on cell line, experimental procedures and data interpretaion have been previously published.^54 The following endpoints were evaluated in cells following exposure to 15fa and 20q: cell growth during expression periods, relative suspension growth, relative total growth, relative cloning efficiency, mutation frequency, and numbers of small (≦0.6 mm in diameter) colonies from trifluorothymidine-resistant (TFT^r) cells.

Vero cells = assay: Cytotoxicity against Vero cells (Cell Titer-Glo); conditions: 72 h; Tables 1-4 and text
[8] = test system: Acinetobacter baumannii ATCC 17978; assay: Spectrum of antimicrobial activity; type: cell-based
[9] = test system: Enterococcus fecalis ATCC 29212; assay: Spectrum of antimicrobial activity; type: cell-based
[10] = test system: Salmonella typhimurium tester strain TA98; assay: Salmonella/microsome plate incorporation assay (Ames screen), TA98; type: cell-based
Description: as §1
Experimental compounds were screened for microbial mutagenicity activity using the plate incorporation method with Salmonella typhimurium tester strains TA98 and TA100, in the presence and absence of an Aroclor 1254-induced rat-liver metabolic activation system containing 10% S9 (MA). The presence of the appropriate genetic characteristics was verified for the strains used in this study. Stock solutions were made by dissolving each test sample in dimethyl sulfoxide (DMSO) at 5 mg/ml. These initial stock concentrations were then serially diluted to achieve dose formulations of 100, 50, 10, 5, 1, 0.5, and 0.1 μg/plate (dosing volume 100 μl). Test plates were compared with the control plates for their revertant count and for the condition of the background bacterial lawn. A test article was considered a mutagen when the mean number of revertant colonies on the test plates exceeds the mean solvent control counts by at least a two-fold margin. Dose relatedness was also taken into account when evaluating a mutagenic response. Cytotoxicity was estimated by several parameters: a substantial decrease in the number of revertant colonies on the test plates, clearing or absence of the background bacterial lawn growth, formation of pinpoint nonrevertant colonies, or complete absence of bacterial growth.

[11] = test system: Escherichia coli pKM101 SRI Collection; assay: Spectrum of antimicrobial activity; type: cell-based
[12] = TA98, with metabolic activation (10% S9), 0.1 μg per plate
[13] = TA98, with metabolic activation (10% S9), 0.5 μg per plate
[14] = TA98, with metabolic activation (10% S9), 1 μg per plate
[15] = TA98, with metabolic activation (10% S9), 5 μg per plate
[16] = TA98, with metabolic activation (10% S9), 10 μg per plate
[17] = TA98, with metabolic activation (10% S9), 50 μg per plate
[18] = TA98, with metabolic activation (10% S9), 100 μg per plate
[19] = TA98, without metabolic activation, 0.1 μg per plate
[20] = TA98, without metabolic activation, 0.5 μg per plate
[21] = TA98, without metabolic activation, 1 μg per plate
[22] = TA98, without metabolic activation, 5 μg per plate
[23] = TA98, without metabolic activation, 10 μg per plate
[24] = TA98, without metabolic activation, 50 μg per plate
[25] = TA98, without metabolic activation, 100 μg per plate

With `[O-][n+]1nc(N2CCCC2)[n+]([O-])c2cc3c(cc21)CCC3` [Compound 20q, 3-(pyrrolidin-1-yl)-7,8-dihydro-6H-indeno[5,6-e][1,2,4]triazine 1,4-dioxide] the “Antimicrobial activity, Klebsiella pneumoniae” value [1] was >32 µg/mL, the solubility [2] was 280 µg/mL (≈ 1030 µM) and the “Antimicrobial activity, Salmonella typhimurium -Hisg46” value [3] was >32 µg/mL. For the same compound, the “susceptibility of M. abscessus” value [4] was “resistant”, the “Antimicrobial activity, Mycobacterium abscessus” value ([4]; ATCC 19977) was >32 µg/mL and the “Antimicrobial activity, Mycobacterium smegmatis” value [5] was 2.5 µg/mL. The MIC (Mtb H37Rv; read-out: MIC, H37Rv, Table 5) was 0.62 µg/mL (≈ 2.28 µM), the MIC (Mtb H37Rv; read-out: TB MIC - SRI, Tables 1-4 and text) was 0.31 µg/mL (≈ 1.14 µM) and the “Antimicrobial activity, Mtb H37Rv” value (Mtb H37Rv; source CSU, SI Table 1) was 0.31 µg/mL. For the same compound, the “Antimicrobial activity, Escherichia coli” value (Escherichia coli BAA 201) was >32 µg/mL, the “Antimicrobial activity, Klebsiella pneumoniae” value [6] was >32 µg/mL and the “Mutagenic potential in MOLY assay” value ([7]; 10 μg/mL, +S9, 4-Hr Exposure) was “Negative”. The “Mutagenic potential in MOLY assay” value ([7]; 10 μg/mL, +S9, 24-Hr Exposure) was “Negative”, the “Mutagenic potential in MOLY assay” value ([7]; 10 μg/mL, −S9, 4-Hr Exposure) was “Negative” and the “Mutagenic potential in MOLY assay” value ([7]; 10 μg/mL, −S9, 24-Hr Exposure) was “Negative”. The “Mutagenic potential in MOLY assay” value ([7]; 25 μg/mL, +S9, 4-Hr Exposure) was “Negative^a”, the “Mutagenic potential in MOLY assay” value ([7]; 25 μg/mL, +S9, 24-Hr Exposure) was “Negative” and the “Mutagenic potential in MOLY assay” value ([7]; 25 μg/mL, −S9, 4-Hr Exposure) was “Negative”. For the same compound, the “Mutagenic potential in MOLY assay” value ([7]; 25 μg/mL, −S9, 24-Hr Exposure) was “Negative”, the “Mutagenic potential in MOLY assay” value ([7]; 50 μg/mL, +S9, 4-Hr Exposure) was “Negative” and the “Mutagenic potential in MOLY assay” value ([7]; 50 μg/mL, +S9, 24-Hr Exposure) was “Negative”. The “Mutagenic potential in MOLY assay” value ([7]; 50 μg/mL, −S9, 4-Hr Exposure) was “Negative”, the “Mutagenic potential in MOLY assay” value ([7]; 50 μg/mL, −S9, 24-Hr Exposure) was “Negative” and the “Mutagenic potential in MOLY assay” value ([7]; 100 μg/mL, +S9, 4-Hr Exposure) was “Negative”. For the same compound, the “Mutagenic potential in MOLY assay” value ([7]; 100 μg/mL, +S9, 24-Hr Exposure) was “Negative”, the “Mutagenic potential in MOLY assay” value ([7]; 100 μg/mL, −S9, 4-Hr Exposure) was “Negative” and the “Mutagenic potential in MOLY assay” value ([7]; 100 μg/mL, −S9, 24-Hr Exposure) was “Negative”. The “mutation frequency in MOLY assay” value ([7]; presence or absence of S9, non-cytotoxic dose levels, up to 100 μg/mL for 20q) was “no mutagenic activity; also recorded: negative response for mutation frequency”, the “Vero Tox CC50” value (Vero cells) was 25 µg/mL and the “Antimicrobial activity, Acinetobacter baumannii” value [8] was >32 µg/mL. For the same compound, the “Antimicrobial activity, Enterococcus fecalis” value [9] was >32 µg/mL, the “Mean revertants per plate” value [10, 12] was 39.5 and the Ratio treated/solvent [10, 12] was 1.4. For the same compound, the “Mean revertants per plate” value [10, 13] was 30.0, the Ratio treated/solvent [10, 13] was 1.1 and the “Mean revertants per plate” value [10, 14] was 47.5. The Ratio treated/solvent [10, 14] was 1.7, the “Mean revertants per plate” value [10, 15] was 124.0 and the Ratio treated/solvent [10, 15] was 4.5. For the same compound, the “Mean revertants per plate” value [10, 16] was 266.5, the Ratio treated/solvent [10, 16] was 9.8 and the “Mean revertants per plate” value [10, 17] was 988.0. The Ratio treated/solvent [10, 17] was 36.1, the “Mean revertants per plate” value [10, 18] was 1566.0 and the Ratio treated/solvent [10, 18] was 57.3. For the same compound, the “Mean revertants per plate” value [10, 19] was 33.0, the Ratio treated/solvent [10, 19] was 1.0 and the “Mean revertants per plate” value [10, 20] was 50.5. The Ratio treated/solvent [10, 20] was 1.6, the “Mean revertants per plate” value [10, 21] was 85.0 and the Ratio treated/solvent [10, 21] was 2.7. The “Mean revertants per plate” value [10, 22] was 241.0, the Ratio treated/solvent [10, 22] was 7.5 and the “Mean revertants per plate” value [10, 23] was 378.5. The Ratio treated/solvent [10, 23] was 11.8, the “Mean revertants per plate” value [10, 24] was 797.0 and the Ratio treated/solvent [10, 24] was 24.9. The “Mean revertants per plate” value [10, 25] was 1133.0, the Ratio treated/solvent [10, 25] was 35.4 and the “number of revertant colonies, TA98” value ([10]; presence and absence of metabolic activation) was “dose-related increases in the number of revertant colonies”. For the same compound, the “Antimicrobial activity, Escherichia coli pKM101” value [11] was >32 μg/mL.
